Measured values as given in paper PMC7594079, “Insights into the Function and Evolution of Taste 1 Receptor Gene Family in the Carnivore Fish Gilthead Seabream (Sparus aurata)” (International Journal of Molecular Sciences, 2020).

Assays:
[1] = test system: saT1R3/R3; details: cells transfected with saT1R3 alone (double amount)
Description: (§1) Previous studies have reported that heterodimeric coupling of saT1R complexes may not be the only mode of functional activation since these subunits, especially T1R3, can also couple as homodimers.
(§2) Figure 8 Comparisons of proline Log-dose response curves of activation in heterologous transfections of hetero- and homo-dimeric saT1R combinations of saT1R1/R3 (black dots), saT1R2a/R3 (white dots), saT1R2b/3 (black triangles), saT1R1/R1 (white triangles) and saT1R3/R3 (black squares). Response is measured as RLU mean ± SEM of four independent determinations normalized to the mean response of the same transfections stimulated with reduced assay medium (BME + 1% FBS), expressed as percentage relative to basal levels (BL).
(§3) saT1Rs (saT1R1, saT1R2a, saT1R2b saT1R3) and saGαi1-2 genes were RT-PCR amplified using 5’ and 3’ flanking primers carrying HindIII and XhoI restriction sites, respectively. Gel-purified fragments were cloned into pGEM-T Easy vectors, re-sequenced, digested and subcloned into pcDNA™3 (Invitrogen, Carlsbad, CA, USA). Effective saT1R cloning into pcDNA™3 was further verified by HindIII/XhoI digestion. […]

[2] = test system: saT1R1/R1; details: cells transfected with saT1R1 alone (double amount)
Description: as §1, §2, §3

[3] = test system: pGL3-NFAT-luc-HEK293 (Cl.3) cells; format: cell-based
Description: BL (Basal Levels) = 100% RLU. Different lowercase letters (a,b,c) on top of bars indicate significant differences (p < 0.05) between concentrations, assessed by one-way ANOVA followed by Tukey’s Multiple Comparison Test (GraphPad Prism version 5.00).

## O=C(O)[C@@H]1CCCN1 [Pro, Proline]
[1]
  response to Pro stimulation: did not respond
[2]
  response to Pro stimulation: did not respond

## OC[C@H]1OC(O)[C@H](O)[C@@H](O)[C@@H]1O (stereo partly drawn) [D-Glucose]
[3]
  doses toxic for the cells and/or inhibiting their stimulation: 300 to 500 mM
